Data taken from US12486302B2, “Somatostatin receptor antagonist compounds and methods of using the same” (CDRD VENTURES INC., priority 2016, dated 2025).
*1 amine or outer side, *2 acyl side, *3 side chain or, on linkers, in order; H or OH if unused. Where a SMILES comes first, the peptide text is derived from it. Bridges are numbered along the chain shown (N, C = ends). Triazole bridges read from a SMILES are 1,4-linked. Side-chain parts run from the residue outwards. [ ]: non-standard residue; d: D form. The star is where a group is joined. ξ: configuration not given here. dPhe(4-CONH2) = NC(=O)c1ccc(C[C@@H](N)C(=O)O)cc1; NMePhe(4-Cl) = CN[C@@H](Cc1ccc(Cl)cc1)C(=O)O; dPhe(4-NH2) = Nc1ccc(C[C@@H](N)C(=O)O)cc1; Phe(4-Cl) = N[C@@H](Cc1ccc(Cl)cc1)C(=O)O; dDap(N3) = [N-]=[N+]=NC[C@@H](N)C(=O)O; Dap(N3) = [N-]=[N+]=NC[C@H](N)C(=O)O; ξPhe(4-Cl) = NC(Cc1ccc(Cl)cc1)C(=O)O; NMeY = CN[C@@H](Cc1ccc(O)cc1)C(=O)O; NH(4-MeO-phenyl) = COc1ccc(N*)cc1; NMeT = CN[C@H](C(=O)O)[C@@H](C)O; Lys(Me) = CNCCCC[C@H](N)C(=O)O; Thr(3ξ) = CC(O)[C@H](N)C(=O)O; NMeK = CN[C@@H](CCCCN)C(=O)O; Succinamoyl = NC(=O)CCC(=O)*; ξY = NC(Cc1ccc(O)cc1)C(=O)O; dPra = C#CC[C@@H](N)C(=O)O; Pra = C#CC[C@H](N)C(=O)O; dDap = NC[C@@H](N)C(=O)O; Dap = NC[C@H](N)C(=O)O; CO = O=C([*:1])[*:2]; Bz = O=C(c1ccccc1)*; NHPh = c1ccc(N*)cc1; βAla = NCCC(=O)O

Biological target: somatostatin type 2 (SSTR2) receptors (Homo sapiens, UniProt P30874)
Sequence (P30874 whole entry): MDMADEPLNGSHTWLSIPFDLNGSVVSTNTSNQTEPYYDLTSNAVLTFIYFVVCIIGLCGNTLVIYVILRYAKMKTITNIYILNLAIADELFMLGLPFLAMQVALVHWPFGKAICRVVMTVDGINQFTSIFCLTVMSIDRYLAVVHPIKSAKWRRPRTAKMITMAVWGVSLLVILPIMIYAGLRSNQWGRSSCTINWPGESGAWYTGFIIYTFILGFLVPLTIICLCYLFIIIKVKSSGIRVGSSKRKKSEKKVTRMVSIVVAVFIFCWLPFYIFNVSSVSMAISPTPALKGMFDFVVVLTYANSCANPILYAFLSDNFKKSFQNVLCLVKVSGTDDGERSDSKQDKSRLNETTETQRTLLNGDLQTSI
Assay: PathHunter β-Arrestin assay, antagonist mode, SSTR2
Format: cell-based
Conditions: agonist challenge at EC80
Method in brief: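 Cells co-expressing PK-tagged human receptor and EA-β-Arrestin were pre-incubated with compound, then challenged with agonist at EC80. β-Gal complementation read by chemiluminescence; % inhibition normalized to EC80 and vehicle controls at 10 concentrations (log 3 steps from 1 μM down to 5e-5 μM), fitted for IC50.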

| IC50 [µM] | SMILES |
| --- | --- |
| 0.00233 | CNCCCC[C@@H]1NC(=O)[C@@H](Cc2ccc(C(N)=O)cc2)NC(=O)[C@H](Cc2ccc(O)cc2)NC(=O)[C@H](NC(=O)[C@H](Cc2ccc(Cl)cc2)NC(=O)CCC(N)=O)CSSC[C@@H](C(=O)N[C@H](Cc2ccc(O)cc2)C(N)=O)NC(=O)[C@H]([C@@H](C)O)NC1=O [Compound 54, H2N(CO)(CH2)2(CO)-Cpa-cyclo[D-Cys-Tyr-D-Phe(4-carbamoyl)-Lys(N^ε-Me)-Thr-Cys]-D-Tyr-NH2] (Succinamoyl-[Phe(4-Cl)][dC]Y[dPhe(4-CONH2)][Lys(Me)]TC[dY]-NH2; disulfide 2-7) |
| > 1 | C[C@@H](O)[C@H]1C(=O)N[C@H](C(=O)N[C@H](Cc2ccc(O)cc2)C(N)=O)CSSC[C@@H](NC(=O)[C@@H](N)Cc2ccc(Cl)cc2)C(=O)N(C)[C@@H](Cc2ccc(O)cc2)C(=O)N[C@H](Cc2ccc(C(N)=O)cc2)C(=O)N[C@@H](CCCCN)C(=O)N1C [Compound 75, H-Cpa-[DCys-NMeTyr-DPhe(4-carbamoyl)-Lys-NMeThr-Cys]-DTyr-NH2] (H-[Phe(4-Cl)][dC][NMeY][dPhe(4-CONH2)]K[NMeT]C[dY]-NH2; disulfide 2-7) |
| 0.00225 | CN[C@@H](Cc1ccc(Cl)cc1)C(=O)N[C@@H]1CSSC[C@@H](C(=O)N[C@H](Cc2ccc(O)cc2)C(N)=O)NC(=O)[C@H]([C@@H](C)O)NC(=O)[C@H](CCCCN)NC(=O)[C@@H](Cc2ccc(C(N)=O)cc2)NC(=O)[C@H](Cc2ccc(O)cc2)NC1=O [Compound 77, H—(N-Me)Cpa-cyclo[D-Cys-Tyr-D-Phe(4-carbamoyl)-Lys-Thr-Cys]-D-Tyr-NH2] (H-[NMePhe(4-Cl)][dC]Y[dPhe(4-CONH2)]KTC[dY]-NH2; disulfide 2-7) |
| 0.0133 | CNCCCC[C@@H]1NC(=O)[C@@H](Cc2ccc(C(N)=O)cc2)NC(=O)[C@H](Cc2ccc(O)cc2)NC(=O)[C@H](NC(=O)[C@@H](N)Cc2ccc(Cl)cc2)CNC(=O)C[C@@H](C(=O)N[C@H](Cc2ccc(O)cc2)C(N)=O)NC(=O)[C@H]([C@@H](C)O)NC1=O [Compound 71, H-Cpa-cyclo [DDap-Tyr- DPhe(4-CONH2)- Lys(Me)-Thr- Asp]-DTyr-NH2] (H-[Phe(4-Cl)][dDap]Y[dPhe(4-CONH2)][Lys(Me)]TD[dY]-NH2; lactam 2-7) |
| 0.00577 | C[C@@H](O)[C@@H]1NC(=O)[C@H](CCCCN)N(C)C(=O)[C@@H](Cc2ccc(C(N)=O)cc2)NC(=O)[C@H](Cc2ccc(O)cc2)NC(=O)[C@H](NC(=O)[C@@H](N)Cc2ccc(Cl)cc2)CSSC[C@@H](C(=O)N[C@H](Cc2ccc(O)cc2)C(N)=O)NC1=O [Compound 72, H-Cpa-cyclo[DCys- Tyr-D-(4- carbamoyl)Phe- (N-alpha-Me)Lys- Thr-Cys]- DTyr-NH2] (H-[Phe(4-Cl)][dC]Y[dPhe(4-CONH2)][NMeK]TC[dY]-NH2; disulfide 2-7) |
| > 1 | C[C@@H](O)[C@@H]1NC(=O)[C@H](CCCCN)NC(=O)[C@@H](Cc2ccc(C(N)=O)cc2)NC(=O)[C@H](Cc2ccc(O)cc2)NC(=O)[C@H](NC(=O)[C@@H](N)Cc2ccc(Cl)cc2)Cn2cc(nn2)C[C@@H](C(=O)N[C@H](Cc2ccc(O)cc2)C(N)=O)NC1=O [Compound 64] (H-[Phe(4-Cl)][dDap(N3)]Y[dPhe(4-CONH2)]KT[Pra][dY]-NH2; triazole 2-7) |
| > 1 | CNCCCC[C@@H]1NC(=O)[C@@H](Cc2ccc(C(N)=O)cc2)NC(=O)[C@H](Cc2ccc(O)cc2)NC(=O)[C@H](NC(=O)[C@@H](N)Cc2ccc(Cl)cc2)CSC(=O)NC[C@@H](C(=O)N[C@H](Cc2ccc(O)cc2)C(N)=O)NC(=O)[C@H](C(C)O)NC1=O (stereo partly drawn) [Compound 63, H-Cpa-cyclo [DCys-Tyr-DPhe (4-CONH2)- Lys(Me)-Thr-Dap]- DTyr-NH2] (H-[Phe(4-Cl)][dC]Y[dPhe(4-CONH2)][Lys(Me)][Thr(3ξ)][Dap][dY]-NH2; linker 2-7 via CO) |
| 0.159 | C[C@@H](O)[C@@H]1NC(=O)[C@H](CCCCN)NC(=O)[C@@H](Cc2ccc(C(N)=O)cc2)NC(=O)[C@H](Cc2ccc(O)cc2)N(C)C(=O)[C@H](NC(=O)[C@@H](N)Cc2ccc(Cl)cc2)CSSC[C@@H](C(=O)N[C@H](Cc2ccc(O)cc2)C(N)=O)NC1=O [Compound 74, H-Cpa-[DCys- NMeTyr-DPhe (4-carbamoyl)- Lys-Thr-Cys]- DTyr-NH2] (H-[Phe(4-Cl)][dC][NMeY][dPhe(4-CONH2)]KTC[dY]-NH2; disulfide 2-7) |
| > 1 | C[C@@H](O)[C@@H]1NC(=O)[C@H](CCCCN)NC(=O)[C@@H](Cc2ccc(C(N)=O)cc2)NC(=O)[C@H](Cc2ccc(O)cc2)NC(=O)[C@H](NC(=O)[C@@H](N)Cc2ccc(Cl)cc2)Cc2cn(nn2)C[C@@H](C(=O)N[C@H](Cc2ccc(O)cc2)C(N)=O)NC1=O [Compound 66] (H-[Phe(4-Cl)][dPra]Y[dPhe(4-CONH2)]KT[Dap(N3)][dY]-NH2; triazole 2-7) |

The remaining lines, values behind:

| SMILES | IC50 [µM] |
| --- | --- |
| COc1ccc(CC(NC(=O)[C@@H]2CSSC[C@@H](NC(=O)[C@@H](N)Cc3ccc(Cl)cc3)C(=O)N[C@@H](Cc3ccc(OC)cc3)C(=O)N[C@H](Cc3ccc(C(N)=O)cc3)C(=O)N[C@@H](CCCCN)C(=O)N[C@@H]([C@@H](C)O)C(=O)N2)C(N)=O)cc1 (stereo partly drawn) [Compound 45, H-Cpa-cyclo[DCys- 4-OMe-Phe-D-(4- carbamoyl)Phe-Lys- Thr-Cys]-4-OMe-D- Phe-NH2] (H-[Phe(4-Cl)][dC]Y(Me)[dPhe(4-CONH2)]KTC[ξY](Me)-NH2; disulfide 2-7) | 0.0146 |
| COc1ccc(C[C@@H]2NC(=O)[C@H](NC(=O)[C@@H](N)Cc3ccc(Cl)cc3)CSSC[C@@H](C(=O)NC(Cc3ccc(O)cc3)C(N)=O)NC(=O)[C@H]([C@@H](C)O)NC(=O)[C@H](CCCCN)NC(=O)[C@@H](Cc3ccc(C(N)=O)cc3)NC2=O)cc1 (stereo partly drawn) [Compound 38, H-Cpa-cyclo[DCys- 4-OMe-Phe-D-(4- carbamoyl)Phe-Lys- Thr-Cys]-DTyr-NH2] (H-[Phe(4-Cl)][dC]Y(Me)[dPhe(4-CONH2)]KTC[ξY]-NH2; disulfide 2-7) | 0.0244 |
| CC(C)[C@@H]1NC(=O)[C@H](CCCCN)NC(=O)[C@@H](Cc2ccc(C(N)=O)cc2)NC(=O)[C@H](Cc2ccc(O)cc2)NC(=O)[C@H](NC(=O)[C@@H](N)Cc2ccc(Cl)cc2)CSSC[C@@H](C(=O)NC(Cc2ccc(O)cc2)C(N)=O)NC1=O (stereo partly drawn) [Compound 33, H-Cpa-cyclo[DCys- Tyr-D-4- (carbamoyl)Phe-Lys- Val-Cys]-DTyr-NH2] (H-[Phe(4-Cl)][dC]Y[dPhe(4-CONH2)]KVC[ξY]-NH2; disulfide 2-7) | 0.056 |
| C[C@@H](O)[C@@H]1NC(=O)[C@H](CCCCN)NC(=O)[C@@H](Cc2ccc(C(N)=O)cc2)NC(=O)[C@H](Cc2ccc(O)cc2)NC(=O)[C@@H](NC(=O)[C@@H](N)Cc2ccc(Cl)cc2)CSSC[C@@H](C(=O)NC(Cc2ccc(O)cc2)C(N)=O)NC1=O (stereo in doubt) [Compound 39, H-Cpa-cyclo[Cys- Tyr-D-(4- carbamoyl)Phe- Lys-Thr-Cys]- DTyr-NH2] | > 1 |
| C[C@@H](O)[C@@H]1NC(=O)[C@H](CCCCN)NC(=O)[C@@H](Cc2ccc(C(N)=O)cc2)NC(=O)[C@H](Cc2ccc(Cl)cc2)NC(=O)[C@H](NC(=O)[C@@H](N)Cc2ccc(Cl)cc2)CSSC[C@@H](C(=O)NC(Cc2ccc(Cl)cc2)C(N)=O)NC1=O (stereo partly drawn) [Compound 43, H-Cpa-cyclo[DCys- 4-Cl-Phe-D-(4- carbamoyl)Phe-Lys- Thr-Cys]-4-Cl-D- Phe-NH2] (H-[Phe(4-Cl)][dC][Phe(4-Cl)][dPhe(4-CONH2)]KTC[ξPhe(4-Cl)]-NH2; disulfide 2-7) | 0.0256 |
| CNCCCC[C@@H]1NC(=O)[C@@H](Cc2ccc(C(N)=O)cc2)NC(=O)[C@H](Cc2ccc(O)cc2)NC(=O)[C@H](NC(=O)[C@H](Cc2ccc(Cl)cc2)NC(=O)CCN)CSSC[C@@H](C(=O)N[C@H](Cc2ccc(O)cc2)C(N)=O)NC(=O)[C@H]([C@@H](C)O)NC1=O [Compound 49, H-β-Ala-Cpa-cyclo[D-Cys-Tyr-D-Phe(4-carbamoyl)-Lys (Nε-Me)-Thr-Cys]-D-Tyr-NH2] (H-[βAla][Phe(4-Cl)][dC]Y[dPhe(4-CONH2)][Lys(Me)]TC[dY]-NH2; disulfide 3-8) | 0.00286 |
| C[C@@H](O)[C@@H]1NC(=O)[C@H](CCCNC(=N)N)NC(=O)[C@@H](Cc2ccc(C(N)=O)cc2)NC(=O)[C@H](Cc2ccc(O)cc2)NC(=O)[C@H](NC(=O)[C@@H](N)Cc2ccc(Cl)cc2)CSSC[C@@H](C(=O)NC(Cc2ccc(O)cc2)C(N)=O)NC1=O (stereo partly drawn) [Compound 29, H-Cpa-cyclo[DCys- Tyr-D-(4- carbamoyl)Phe-Arg- Thr-Cys]-DTyr-NH2] (H-[Phe(4-Cl)][dC]Y[dPhe(4-CONH2)]RTC[ξY]-NH2; disulfide 2-7) | 0.398 |
| CNCCCC[C@@H]1NC(=O)[C@@H](Cc2ccc(NC(=O)Nc3ccccc3)cc2)NC(=O)[C@H](Cc2ccc(O)cc2)NC(=O)[C@H](NC(=O)[C@@H](N)Cc2ccc(Cl)cc2)CSSC[C@@H](C(=O)NC(Cc2ccc(O)cc2)C(N)=O)NC(=O)[C@H]([C@@H](C)O)NC1=O (stereo partly drawn) [Compound 25, H-Cpa-cyclo[D-Cys-Tyr-D-Phe(4-phenylureido)-Lys(N^ε-Me)-Thr-Cys]-D-Tyr-NH2] (H-[Phe(4-Cl)][dC]Y[dPhe(4-NH2)]([CO-NHPh])[Lys(Me)]TC[ξY]-NH2; disulfide 2-7) | 0.00232 |
| COc1ccc(NC(=O)Nc2ccc(C[C@H]3NC(=O)[C@H](Cc4ccc(O)cc4)NC(=O)[C@H](NC(=O)[C@@H](N)Cc4ccc(Cl)cc4)CSSC[C@@H](C(=O)N[C@H](Cc4ccc(O)cc4)C(N)=O)NC(=O)[C@H]([C@@H](C)O)NC(=O)[C@H](CCCCN)NC3=O)cc2)cc1 [Compound 28, H-Cpa-cyclo[DCys- Tyr-D-(4-(4- methoxyphenyl) ureido) Phe-Lys-Thr-Cys]- DTyr-NH2] (H-[Phe(4-Cl)][dC]Y[dPhe(4-NH2)]([CO-NH(4-MeO-phenyl)])KTC[dY]-NH2; disulfide 2-7) | 0.104 |
| C[C@@H](O)[C@@H]1NC(=O)[C@H](CCCCN)NC(=O)[C@@H](Cc2ccc(NC(=O)c3ccccc3)cc2)NC(=O)[C@H](Cc2ccc(O)cc2)NC(=O)[C@H](NC(=O)[C@@H](N)Cc2ccc(Cl)cc2)CSSC[C@@H](C(=O)NC(Cc2ccc(O)cc2)C(N)=O)NC1=O (stereo partly drawn) [Compound 27, H-Cpa-cyclo[DCys- Tyr-D-(4- Benzamidophenyl) Phe-Lys-Thr- Cys]-DTyr-NH2] (H-[Phe(4-Cl)][dC]Y[dPhe(4-NH2)](Bz)KTC[ξY]-NH2; disulfide 2-7) | 0.0347 |
